The results in this text go back to patent US9926302B2, “Heteroaryl substituted heterocyclyl sulfones” (priority 2014, dated 2018).

T1 sequence (P54289 947-1103): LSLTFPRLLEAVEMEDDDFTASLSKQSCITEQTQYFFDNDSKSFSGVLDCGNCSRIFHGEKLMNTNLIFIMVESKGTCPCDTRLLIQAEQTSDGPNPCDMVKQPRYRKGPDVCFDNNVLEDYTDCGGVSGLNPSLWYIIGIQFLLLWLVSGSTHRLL
T1 sequence (P54289 25-946): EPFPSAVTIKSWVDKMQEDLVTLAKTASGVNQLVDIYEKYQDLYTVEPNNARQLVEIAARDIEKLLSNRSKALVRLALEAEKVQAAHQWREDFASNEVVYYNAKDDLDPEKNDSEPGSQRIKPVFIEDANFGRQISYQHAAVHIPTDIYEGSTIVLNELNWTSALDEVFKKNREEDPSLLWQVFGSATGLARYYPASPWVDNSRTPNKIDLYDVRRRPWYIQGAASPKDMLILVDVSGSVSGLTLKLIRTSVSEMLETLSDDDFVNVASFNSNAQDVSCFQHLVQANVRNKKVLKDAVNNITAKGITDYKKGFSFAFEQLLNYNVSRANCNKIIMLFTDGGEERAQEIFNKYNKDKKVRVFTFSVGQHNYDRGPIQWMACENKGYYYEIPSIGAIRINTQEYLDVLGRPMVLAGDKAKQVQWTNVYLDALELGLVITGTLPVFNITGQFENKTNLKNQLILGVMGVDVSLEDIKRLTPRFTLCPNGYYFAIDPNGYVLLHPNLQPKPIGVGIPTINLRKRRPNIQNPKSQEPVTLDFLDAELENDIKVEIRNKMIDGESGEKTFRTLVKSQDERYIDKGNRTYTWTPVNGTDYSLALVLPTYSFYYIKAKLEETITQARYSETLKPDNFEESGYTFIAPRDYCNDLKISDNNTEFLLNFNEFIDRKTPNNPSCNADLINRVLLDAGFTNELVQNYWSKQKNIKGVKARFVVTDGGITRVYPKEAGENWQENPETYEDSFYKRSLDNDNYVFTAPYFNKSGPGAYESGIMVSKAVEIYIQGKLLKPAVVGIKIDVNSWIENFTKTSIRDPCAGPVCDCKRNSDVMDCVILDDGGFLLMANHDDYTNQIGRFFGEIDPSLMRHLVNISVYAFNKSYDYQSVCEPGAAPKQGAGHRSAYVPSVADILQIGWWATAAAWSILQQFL
T1 sequence (P54284 whole entry, further chain): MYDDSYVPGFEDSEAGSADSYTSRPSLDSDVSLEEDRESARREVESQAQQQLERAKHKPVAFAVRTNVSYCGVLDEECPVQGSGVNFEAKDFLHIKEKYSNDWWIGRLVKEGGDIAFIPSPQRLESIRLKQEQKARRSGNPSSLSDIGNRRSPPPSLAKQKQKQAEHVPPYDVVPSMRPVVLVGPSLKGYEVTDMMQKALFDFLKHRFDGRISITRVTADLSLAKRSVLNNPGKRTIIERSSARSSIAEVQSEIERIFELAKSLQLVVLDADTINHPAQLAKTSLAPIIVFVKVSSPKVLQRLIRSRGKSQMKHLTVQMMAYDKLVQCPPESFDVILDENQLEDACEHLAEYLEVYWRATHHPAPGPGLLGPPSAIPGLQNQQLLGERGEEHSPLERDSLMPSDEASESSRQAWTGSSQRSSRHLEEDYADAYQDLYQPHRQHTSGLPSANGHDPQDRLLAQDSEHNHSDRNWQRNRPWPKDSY
T1 sequence (Q00975 whole entry): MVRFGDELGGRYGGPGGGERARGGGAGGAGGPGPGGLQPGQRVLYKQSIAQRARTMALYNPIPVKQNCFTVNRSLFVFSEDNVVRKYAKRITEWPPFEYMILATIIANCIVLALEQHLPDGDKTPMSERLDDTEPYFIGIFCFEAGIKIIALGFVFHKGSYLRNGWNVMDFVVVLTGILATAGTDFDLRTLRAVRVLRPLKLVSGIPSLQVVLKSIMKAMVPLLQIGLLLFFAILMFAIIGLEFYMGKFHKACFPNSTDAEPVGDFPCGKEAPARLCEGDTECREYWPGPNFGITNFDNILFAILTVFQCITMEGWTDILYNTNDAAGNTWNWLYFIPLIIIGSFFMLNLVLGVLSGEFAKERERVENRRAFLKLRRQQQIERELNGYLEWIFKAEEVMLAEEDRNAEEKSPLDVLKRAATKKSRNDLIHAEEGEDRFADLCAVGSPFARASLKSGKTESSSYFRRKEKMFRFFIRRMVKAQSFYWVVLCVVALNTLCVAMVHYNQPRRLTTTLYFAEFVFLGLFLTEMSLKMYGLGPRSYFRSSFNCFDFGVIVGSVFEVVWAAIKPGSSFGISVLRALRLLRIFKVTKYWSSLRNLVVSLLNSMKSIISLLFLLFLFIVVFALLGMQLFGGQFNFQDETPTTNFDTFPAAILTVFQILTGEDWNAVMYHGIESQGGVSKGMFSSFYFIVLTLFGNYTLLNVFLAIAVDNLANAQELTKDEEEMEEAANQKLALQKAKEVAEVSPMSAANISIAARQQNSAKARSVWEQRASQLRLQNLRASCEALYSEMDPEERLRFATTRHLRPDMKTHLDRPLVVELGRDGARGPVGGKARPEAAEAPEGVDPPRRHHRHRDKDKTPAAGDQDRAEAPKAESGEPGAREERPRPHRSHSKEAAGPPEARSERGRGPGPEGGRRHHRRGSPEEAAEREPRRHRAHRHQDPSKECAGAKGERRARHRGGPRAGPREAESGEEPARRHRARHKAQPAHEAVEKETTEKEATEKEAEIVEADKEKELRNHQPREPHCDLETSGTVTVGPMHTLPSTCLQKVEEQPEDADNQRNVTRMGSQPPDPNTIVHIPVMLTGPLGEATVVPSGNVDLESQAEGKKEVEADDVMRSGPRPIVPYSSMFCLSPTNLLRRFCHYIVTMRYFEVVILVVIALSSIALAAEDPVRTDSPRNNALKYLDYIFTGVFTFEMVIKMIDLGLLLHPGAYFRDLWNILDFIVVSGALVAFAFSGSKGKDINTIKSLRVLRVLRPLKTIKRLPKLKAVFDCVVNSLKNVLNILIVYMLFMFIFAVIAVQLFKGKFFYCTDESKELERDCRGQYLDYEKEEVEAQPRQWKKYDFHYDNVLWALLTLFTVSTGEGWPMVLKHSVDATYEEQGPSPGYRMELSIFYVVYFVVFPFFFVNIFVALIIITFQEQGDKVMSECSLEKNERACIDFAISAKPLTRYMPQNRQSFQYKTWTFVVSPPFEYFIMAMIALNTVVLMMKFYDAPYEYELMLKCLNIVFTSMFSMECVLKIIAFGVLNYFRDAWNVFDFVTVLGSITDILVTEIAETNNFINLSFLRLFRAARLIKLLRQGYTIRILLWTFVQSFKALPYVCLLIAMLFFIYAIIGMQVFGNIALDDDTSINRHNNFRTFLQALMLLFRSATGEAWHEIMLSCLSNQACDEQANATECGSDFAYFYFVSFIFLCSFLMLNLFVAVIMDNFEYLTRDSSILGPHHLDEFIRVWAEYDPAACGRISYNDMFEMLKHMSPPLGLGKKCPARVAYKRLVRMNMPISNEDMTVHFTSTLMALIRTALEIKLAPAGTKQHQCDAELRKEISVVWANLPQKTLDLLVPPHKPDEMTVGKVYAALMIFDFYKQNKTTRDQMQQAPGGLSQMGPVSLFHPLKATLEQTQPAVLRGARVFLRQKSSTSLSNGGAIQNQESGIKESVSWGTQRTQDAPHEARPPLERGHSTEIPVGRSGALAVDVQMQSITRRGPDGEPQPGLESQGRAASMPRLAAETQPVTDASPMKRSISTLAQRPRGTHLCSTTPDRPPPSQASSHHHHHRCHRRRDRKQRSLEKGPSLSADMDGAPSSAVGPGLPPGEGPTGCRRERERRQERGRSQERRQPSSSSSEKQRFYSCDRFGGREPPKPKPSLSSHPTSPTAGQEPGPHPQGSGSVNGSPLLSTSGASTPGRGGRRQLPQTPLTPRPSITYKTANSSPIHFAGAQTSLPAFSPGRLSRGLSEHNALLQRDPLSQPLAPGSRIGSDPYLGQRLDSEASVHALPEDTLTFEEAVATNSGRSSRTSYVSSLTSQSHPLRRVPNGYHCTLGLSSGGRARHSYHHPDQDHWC

One assay addresses T1, Human CaV2.2 channels (Homo sapiens, UniProt Q00975).
T1 construct: expressed in transfected cells
The assay is described as follows: Fluorescence assay for CaV2.2 channels using potassium depolarization to induce channel opening (FLIPR, Fluo 4). The assay is classed as cell-based. Particulars: 3 μM test compound; alternative assay buffer 30 mM KCl (inactivated channel state); HEK293 cells stably expressing human CaV2.2. The method, boiled down:
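HEK293 cells stably co-expressing CaV2.2 with alpha2-delta and beta subunits plus Kir2.3, loaded with 2 μM Fluo 4 and pre-incubated 15 min at 25° C with compound in 1 mM or 30 mM KCl buffer (pH 7.4; latter promotes inactivated state). Depolarized by KCl addition; peak fluorescence amplitude normalized to baseline gives inhibition.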
`CCC1(S(=O)(=O)c2cccc(C(F)(F)F)c2)CCOC(c2ccc(C)nc2C)C1` (centres unmarked) [SC-317, 3-[4-Ethyl-4-[[3-(trifluoromethyl)phenyl]sulfonyl]-tetrahydro-pyran-2-yl]-2,6-dimethyl-pyridine]: the “Activity Category: %-Inhib (CaV2.2) @3 μM @30 mM KCl” value (from here on “Activity Category: %-Inhib”) is “C (%-Inhibition >40% up to ≤75%)”.
As for `CCC1(S(=O)(=O)c2cccc(C(F)(F)F)c2)CCOC(c2ccc(C)nc2C)C1` (centres unmarked) [SC-318, 3-[4-Ethyl-4-[[3-(trifluoromethyl)phenyl]sulfonyl]-tetrahydro-pyran-2-yl]-2,6-dimethyl-pyridine], the “Activity Category: %-Inhib” value is reported as “B (%-Inhibition >75% up to ≤95%)”.
With `CC1(S(=O)(=O)c2cccc(C(F)(F)F)c2)CCOC(c2cnc(C3CC3)cn2)C1` (centres unmarked) [SC-329, 2-Cyclopropyl-5-[4-methyl-4-[[3-(trifluoromethyl)phenyl]sulfonyl]-tetrahydro-pyran-2-yl]-pyrazine], the “Activity Category: %-Inhib” value is reported as “A (%-Inhibition >95%)”.
As to `CN(C)c1ccc(C2CC(C)(S(=O)(=O)c3cccc(C(F)(F)F)c3)CCO2)cn1` (centres unmarked) [SC-331, Dimethyl-[5-[4-methyl-4-[[3-(trifluoromethyl)phenyl]sulfonyl]-tetrahydro-pyran-2-yl]-pyridin-2-yl]-amine], the “Activity Category: %-Inhib” value is reported as “A (%-Inhibition >95%)”.
For the compound `CC1(S(=O)(=O)c2cccc(C(F)(F)F)c2)CCOC(c2ccc(S(C)(=O)=O)nc2)C1` (centres unmarked) [SC-336, 2-Methylsulfonyl-5-[4-methyl-4-[[3-(trifluoromethyl)phenyl]sulfonyl]-tetrahydro-pyran-2-yl]-pyridine], the “Activity Category: %-Inhib” value was “C (%-Inhibition >40% up to ≤75%)”.
Regarding `CC1(S(=O)(=O)c2cccc(C(F)(F)F)c2)CCOC(c2ccc(S(C)(=O)=O)nc2)C1` (centres unmarked) [SC-338, 2-Methylsulfonyl-5-[4-methyl-4-[[3-(trifluoromethyl)phenyl]sulfonyl]-tetrahydro-pyran-2-yl]-pyridine], the “Activity Category: %-Inhib” value is “B (%-Inhibition >75% up to ≤95%)”.
As to `Cn1nc(C(F)(F)F)cc1C1CC(C)(S(=O)(=O)c2cccc(C(F)(F)F)c2)CCO1` (centres unmarked) [SC-345, 1-Methyl-5-[4-methyl-4-[[3-(trifluoromethyl)phenyl]sulfonyl]-tetrahydro-pyran-2-yl]-3-(trifluoromethyl)-1H-pyrazole], the “Activity Category: %-Inhib” value is on record as “A (%-Inhibition >95%)”.
Still for that read-out and setting: the entry for `CC1(S(=O)(=O)c2cccc(C(F)(F)F)c2)CCOC(c2ccc(C3CC3)nc2)C1` (centres unmarked) [SC-348, 2-Cyclopropyl-5-[4-methyl-4-[[3-(trifluoromethyl)phenyl]sulfonyl]-tetrahydro-pyran-2-yl]-pyridine] is “A (%-Inhibition >95%)”; for `COc1ccc(C2CC(C)(S(=O)(=O)c3cccc(C(F)(F)F)c3)CCO2)cn1` (centres unmarked) [SC-354, 2-Methoxy-5-[4-methyl-4-[[3-(trifluoromethyl)phenyl]sulfonyl]-tetrahydro-pyran-2-yl]-pyridine] it is “A (%-Inhibition >95%)”; for `CC1(S(=O)(=O)c2cccc(C(F)(F)F)c2)CCOC(c2ncc(C(F)(F)F)cc2S(C)(=O)=O)C1` (centres unmarked) [SC-356, 3-Methylsulfonyl-2-[4-methyl-4-[[3-(trifluoromethyl)phenyl]sulfonyl]-tetrahydro-pyran-2-yl]-5-(trifluoromethyl)-pyridine] it is “A (%-Inhibition >95%)”.

Still in this assay, the particulars now being: HEK293, 3 μM test compound; alternative assay buffer 30 mM KCl (inactivated channel state); HEK293 cells stably expressing human CaV2.2; read-out: Activity Category: %-Inhib (CaV2.2) @3 μM @30 mM KCl.
`CC1(S(=O)(=O)c2cccc(C(F)(F)F)c2)CCOC(c2ccc(C(F)(F)F)nc2)C1` (centres unmarked) [SC-315, 5-[4-Methyl-4-[[3-(trifluoromethyl)phenyl]sulfonyl]-tetrahydro-pyran-2-yl]-2-(trifluoromethyl)-pyridine]: the inhibition at 3 µM was > 95%.
Turning to `CCC1(S(=O)(=O)c2cccc(C(F)(F)F)c2)CCOC(c2cccc(C)n2)C1` (centres unmarked) [SC-324, 2-[4-Ethyl-4-[[3-(trifluoromethyl)phenyl]sulfonyl]-tetrahydro-pyran-2-yl]-6-methyl-pyridine], the inhibition at 3 µM is 75 to 95%.
For the compound `CC1(S(=O)(=O)c2cccc(C(F)(F)F)c2)CCOC(c2cncc(C3CC3)c2)C1` (centres unmarked) [SC-325, 3-Cyclopropyl-5-[4-methyl-4-[[3-(trifluoromethyl)phenyl]sulfonyl]-tetrahydro-pyran-2-yl]-pyridine], the inhibition at 3 µM was > 95%.
Still for that read-out and setting: the figure for `CC1(S(=O)(=O)c2cccc(C(F)(F)F)c2)CCOC(c2cnc(C3CC3)cn2)C1` (centres unmarked) [SC-327, 2-Cyclopropyl-5-[4-methyl-4-[[3-(trifluoromethyl)phenyl]sulfonyl]-tetrahydro-pyran-2-yl]-pyrazine] is 75 to 95%.
In the case of `CN(C)c1ccc(C2CC(C)(S(=O)(=O)c3cccc(C(F)(F)F)c3)CCO2)cn1` (centres unmarked) [SC-330, Dimethyl-[5-[4-methyl-4-[[3-(trifluoromethyl)phenyl]sulfonyl]-tetrahydro-pyran-2-yl]-pyridin-2-yl]-amine], the inhibition at 3 µM lay within 75 to 95%.
For the compound `CCC1(S(=O)(=O)c2cccc(C(F)(F)F)c2)CCOC(c2cnc(C3CC3)cn2)C1` (centres unmarked) [SC-332, 2-Cyclopropyl-5-[4-ethyl-4-[[3-(trifluoromethyl)phenyl]sulfonyl]-tetrahydro-pyran-2-yl]-pyrazine], the inhibition at 3 µM lay within 75 to 95%.
On to `Cc1ccc(C2CC(S(=O)(=O)c3cccc(C(F)(F)F)c3)CCO2)c(C)n1` (centres unmarked) [SC-335, 2,6-Dimethyl-3-[4-[[3-(trifluoromethyl)phenyl]sulfonyl]-tetrahydro-pyran-2-yl]-pyridine], for which the inhibition at 3 µM fell in the range of 40 to 75%.
Same read-out and setting: the figure for `CC(C)Oc1ccc(C2CC(S(=O)(=O)c3cccc(C(F)(F)F)c3)CCO2)cn1` (centres unmarked) [SC-339, 2-Isopropoxy-5-[4-[[3-(trifluoromethyl)phenyl]sulfonyl]-tetrahydro-pyran-2-yl]-pyridine] is > 95%; for `O=S(=O)(c1cccc(C(F)(F)F)c1)C1CCOC(c2ccc(C(F)(F)F)nc2)C1` (centres unmarked) [SC-342, 2-(Trifluoromethyl)-5-[4-[[3-(trifluoromethyl)phenyl]sulfonyl]-tetrahydro-pyran-2-yl]-pyridine] it is 75 to 95%.
On to `Cn1nc(C(F)(F)F)cc1C1CC(C)(S(=O)(=O)c2cccc(C(F)(F)F)c2)CCO1` (centres unmarked) [SC-343, 1-Methyl-5-[4-methyl-4-[[3-(trifluoromethyl)phenyl]sulfonyl]-tetrahydro-pyran-2-yl]-3-(trifluoromethyl)-1H-pyrazole], for which the inhibition at 3 µM was 75 to 95%.
For `CC1(S(=O)(=O)c2cccc(C(F)(F)F)c2)CCOC(c2ccc(C3CC3)nc2)C1` (centres unmarked) [SC-346, 2-Cyclopropyl-5-[4-methyl-4-[[3-(trifluoromethyl)phenyl]sulfonyl]-tetrahydro-pyran-2-yl]-pyridine], the inhibition at 3 µM was in the range of 75 to 95%.
As to `O=S(=O)(c1cccc(C(F)(F)F)c1)C1CCOC(c2cccc(C(F)(F)F)n2)C1` (centres unmarked) [SC-350, 2-(Trifluoromethyl)-6-[4-[[3-(trifluoromethyl)phenyl]sulfonyl]-tetrahydro-pyran-2-yl]-pyridine], the inhibition at 3 µM was > 95%.
As for `COc1ccc(C2CC(C)(S(=O)(=O)c3cccc(C(F)(F)F)c3)CCO2)cn1` (centres unmarked) [SC-353, 2-Methoxy-5-[4-methyl-4-[[3-(trifluoromethyl)phenyl]sulfonyl]-tetrahydro-pyran-2-yl]-pyridine], the inhibition at 3 µM fell in the range of 75 to 95%.
Consider `CC1(S(=O)(=O)c2cccc(C(F)(F)F)c2)CCOC(c2ncc(C(F)(F)F)cc2S(C)(=O)=O)C1` (centres unmarked) [SC-355, 3-Methylsulfonyl-2-[4-methyl-4-[[3-(trifluoromethyl)phenyl]sulfonyl]-tetrahydro-pyran-2-yl]-5-(trifluoromethyl)-pyridine], for which the inhibition at 3 µM fell in the range of 75 to 95%.
Same read-out and setting: the figure for `CC1(S(=O)(=O)c2cccc(C(F)(F)F)c2)CCOC(c2ccc(N3CCCC3)nc2)C1` (centres unmarked) [SC-400, 5-[4-Methyl-4-[[3-(trifluoromethyl)phenyl]sulfonyl]-tetrahydro-pyran-2-yl]-2-pyrrolidin-1-yl-pyridine] is > 95%; for `CC1(S(=O)(=O)c2cccc(C(F)(F)F)c2)CCOC(c2ccc(-n3cncn3)nc2)C1` (centres unmarked) [SC-402, 5-[4-Methyl-4-[[3-(trifluoromethyl)phenyl]sulfonyl]-tetrahydro-pyran-2-yl]-2-(1H-[1,2,4]triazol-1-yl)-pyridine] it is 75 to 95%; for `COCCOc1ccc(C2CC(C)(S(=O)(=O)c3cccc(C(F)(F)F)c3)CCO2)cn1` (centres unmarked) [SC-404, 2-(2-Methoxy-ethoxy)-5-[4-methyl-4-[[3-(trifluoromethyl)phenyl]sulfonyl]-tetrahydro-pyran-2-yl]-pyridine] it is 75 to 95%.
For the compound `CNc1ccc(C2CC(C)(S(=O)(=O)c3cccc(C(F)(F)F)c3)CCO2)cn1` (centres unmarked) [SC-408, Methyl-[5-[4-methyl-4-[[3-(trifluoromethyl)phenyl]sulfonyl]-tetrahydro-pyran-2-yl]-pyridin-2-yl]-amine], the inhibition at 3 µM is 75 to 95%.
With `COc1ncc(C2CC(C)(S(=O)(=O)c3cccc(C(F)(F)F)c3)CCO2)cn1` (centres unmarked) [SC-410, 2-Methoxy-5-[4-methyl-4-[[3-(trifluoromethyl)phenyl]sulfonyl]-tetrahydro-pyran-2-yl]-pyrimidine], the inhibition at 3 µM is 40 to 75%.
Consider `CN(C)c1ncc(C2CC(C)(S(=O)(=O)c3cccc(C(F)(F)F)c3)CCO2)cn1` (centres unmarked) [SC-413, Dimethyl-[5-[4-methyl-4-[[3-(trifluoromethyl)phenyl]sulfonyl]-tetrahydro-pyran-2-yl]-pyrimidin-2-yl]-amine], for which the inhibition at 3 µM fell in the range of 75 to 95%.
Regarding `COc1cnc(C2CC(C)(S(=O)(=O)c3cccc(C(F)(F)F)c3)CCO2)cn1` (centres unmarked) [SC-415, 2-Methoxy-5-[4-methyl-4-[[3-(trifluoromethyl)phenyl]sulfonyl]-tetrahydro-pyran-2-yl]-pyrazine], the inhibition at 3 µM is 75 to 95%.
In the case of `CC1(S(=O)(=O)c2cccc(C(F)(F)F)c2)CCOC(c2ccc(OC(F)F)nc2)C1` (centres unmarked) [SC-418, 2-(Difluoro-methoxy)-5-[4-methyl-4-[[3-(trifluoromethyl)phenyl]sulfonyl]-tetrahydro-pyran-2-yl]-pyridine], the inhibition at 3 µM is > 95%.
